Source: the OligoGym collection
Oligonucleotides are given in HELM: sugar(base)linkage, 5' to 3'; d 2'-deoxyribose, r ribose, m 2'-O-methylribose, p phosphate. ss, as = sense and antisense strand

Molecular target: Cacnb1 (rat)
Test: reporter assay of Huesken 2005
Conditions: siRNA
Further: test concentration or dose not given here.

Substance	normalised inhibition (eCFP-eYFP dual reporter) [%]
RNA1{r(U)p.r(A)p.r(C)p.r(A)p.r(C)p.r(G)p.r(G)p.r(A)p.r(G)p.r(C)p.r(C)p.r(A)p.r(G)p.r(G)p.r(A)p.r(G)p.r(A)p.r(C)p.r(U)p.d(T)p.d(T)}|RNA2{r(A)p.r(G)p.r(U)p.r(C)p.r(U)p.r(C)p.r(C)p.r(U)p.r(G)p.r(G)p.r(C)p.r(U)p.r(C)p.r(C)p.r(G)p.r(U)p.r(G)p.r(U)p.r(A)p.d(G)p.d(A)}$$$RNA1{StrandType:ss}|RNA2{StrandType:as}$	54.9
RNA1{r(U)p.r(A)p.r(C)p.r(A)p.r(U)p.r(C)p.r(C)p.r(G)p.r(C)p.r(U)p.r(G)p.r(A)p.r(G)p.r(A)p.r(G)p.r(G)p.r(C)p.r(A)p.r(G)p.d(T)p.d(T)}|RNA2{r(C)p.r(U)p.r(G)p.r(C)p.r(C)p.r(U)p.r(C)p.r(U)p.r(C)p.r(A)p.r(G)p.r(C)p.r(G)p.r(G)p.r(A)p.r(U)p.r(G)p.r(U)p.r(A)p.d(G)p.d(A)}$$$RNA1{StrandType:ss}|RNA2{StrandType:as}$	39.5
RNA1{r(U)p.r(C)p.r(C)p.r(U)p.r(G)p.r(C)p.r(A)p.r(C)p.r(A)p.r(U)p.r(C)p.r(A)p.r(A)p.r(G)p.r(G)p.r(A)p.r(G)p.r(A)p.r(A)p.d(T)p.d(T)}|RNA2{r(U)p.r(U)p.r(C)p.r(U)p.r(C)p.r(C)p.r(U)p.r(U)p.r(G)p.r(A)p.r(U)p.r(G)p.r(U)p.r(G)p.r(C)p.r(A)p.r(G)p.r(G)p.r(A)p.d(A)p.d(G)}$$$RNA1{StrandType:ss}|RNA2{StrandType:as}$	94
RNA1{r(U)p.r(C)p.r(G)p.r(A)p.r(C)p.r(A)p.r(G)p.r(A)p.r(G)p.r(C)p.r(A)p.r(C)p.r(G)p.r(U)p.r(G)p.r(C)p.r(C)p.r(C)p.r(C)p.d(T)p.d(T)}|RNA2{r(G)p.r(G)p.r(G)p.r(G)p.r(C)p.r(A)p.r(C)p.r(G)p.r(U)p.r(G)p.r(C)p.r(U)p.r(C)p.r(U)p.r(G)p.r(U)p.r(C)p.r(G)p.r(A)p.d(C)p.d(T)}$$$RNA1{StrandType:ss}|RNA2{StrandType:as}$	39.9
RNA1{r(U)p.r(C)p.r(G)p.r(G)p.r(G)p.r(A)p.r(G)p.r(G)p.r(C)p.r(U)p.r(G)p.r(G)p.r(U)p.r(G)p.r(A)p.r(A)p.r(G)p.r(G)p.r(A)p.d(T)p.d(T)}|RNA2{r(U)p.r(C)p.r(C)p.r(U)p.r(U)p.r(C)p.r(A)p.r(C)p.r(C)p.r(A)p.r(G)p.r(C)p.r(C)p.r(U)p.r(C)p.r(C)p.r(C)p.r(G)p.r(A)p.d(T)p.d(C)}$$$RNA1{StrandType:ss}|RNA2{StrandType:as}$	73.7
RNA1{r(U)p.r(G)p.r(G)p.r(A)p.r(C)p.r(A)p.r(G)p.r(C)p.r(C)p.r(U)p.r(U)p.r(C)p.r(G)p.r(C)p.r(C)p.r(U)p.r(G)p.r(C)p.r(U)p.d(T)p.d(T)}|RNA2{r(A)p.r(G)p.r(C)p.r(A)p.r(G)p.r(G)p.r(C)p.r(G)p.r(A)p.r(A)p.r(G)p.r(G)p.r(C)p.r(U)p.r(G)p.r(U)p.r(C)p.r(C)p.r(A)p.d(G)p.d(T)}$$$RNA1{StrandType:ss}|RNA2{StrandType:as}$	39.5
RNA1{r(U)p.r(G)p.r(G)p.r(U)p.r(G)p.r(G)p.r(G)p.r(A)p.r(C)p.r(C)p.r(A)p.r(U)p.r(C)p.r(G)p.r(C)p.r(U)p.r(C)p.r(A)p.r(A)p.d(T)p.d(T)}|RNA2{r(U)p.r(U)p.r(G)p.r(A)p.r(G)p.r(C)p.r(G)p.r(A)p.r(U)p.r(G)p.r(G)p.r(U)p.r(C)p.r(C)p.r(C)p.r(A)p.r(C)p.r(C)p.r(A)p.d(G)p.d(G)}$$$RNA1{StrandType:ss}|RNA2{StrandType:as}$	71.2
RNA1{r(U)p.r(U)p.r(A)p.r(G)p.r(C)p.r(C)p.r(C)p.r(A)p.r(G)p.r(C)p.r(U)p.r(C)p.r(G)p.r(A)p.r(G)p.r(A)p.r(A)p.r(A)p.r(G)p.d(T)p.d(T)}|RNA2{r(C)p.r(U)p.r(U)p.r(U)p.r(C)p.r(U)p.r(C)p.r(G)p.r(A)p.r(G)p.r(C)p.r(U)p.r(G)p.r(G)p.r(G)p.r(C)p.r(U)p.r(A)p.r(A)p.d(G)p.d(G)}$$$RNA1{StrandType:ss}|RNA2{StrandType:as}$	63.7
RNA1{r(U)p.r(U)p.r(U)p.r(C)p.r(A)p.r(U)p.r(C)p.r(C)p.r(C)p.r(C)p.r(A)p.r(G)p.r(C)p.r(C)p.r(C)p.r(U)p.r(G)p.r(U)p.r(C)p.d(T)p.d(T)}|RNA2{r(G)p.r(A)p.r(C)p.r(A)p.r(G)p.r(G)p.r(G)p.r(C)p.r(U)p.r(G)p.r(G)p.r(G)p.r(G)p.r(A)p.r(U)p.r(G)p.r(A)p.r(A)p.r(A)p.d(C)p.d(C)}$$$RNA1{StrandType:ss}|RNA2{StrandType:as}$	16.4
